Laboratory results as given in patent US9701709B2 (REATA PHARMACEUTICALS, INC., priority 2012, dated 2017).
Marks after values point to notes of the source that are not given here.

Tests used:
Assay type in all cases: physicochemical
[1] = Dynamic vapor sorption (hygroscopicity)
Description: Projekt Messtechnik Sorptions Prüfsystem SPS 11-100n or Surface Measurement Systems DVS-1. The sample was placed on an aluminum or platinum holder on top of a microbalance and allowed to equilibrate for 2 h at 50% r.h. before starting the pre-defined humidity program: • (1) 50→0% r.h. (5%/h); 5 h at 0% r.h. • (2) 0→95% r.h. (5%/h); 5 h at 95% r.h. • (3) 95→50% r.h. (5%/h); 2 h at 50% r.h.

[2] = Chemical stability in solvents and aqueous surfactant media (HPLC); conditions: diluent 0.1% formic acid in MeCN, within ~24 hours; start 99.9%
Description: The chemical stability of the amorphous form was investigated in different solvents over the course of seven days.
Solutions/suspensions with a concentration of 1 mg/mL were prepared in four organic solvents (acetone, MeOH, MeCN, EtOAc) and three aqueous surfactant media (1% aq. SDS, 1% aq. Tween 80, 1% aq. CTAB).
Four separate solutions/suspensions were prepared for each solvent, equilibrated for 6 h, 24 h, 2 d, and 7 d and subsequently analyzed by HPLC.
Due to this effect, the samples measured towards the end of the sequence (set up in the following order: 7 d, 2 d, 24 h, 6 h), might be affected and the obtained area-% might be underestimated.
Four samples of 1.0 mg of the PP415-P1 material in 1.0 mL of the respective solvent were prepared. The resulting suspensions/solutions were equilibrated in a temperature-controlled Eppendorf Thermomixer Comfort shaker for 7 d, 2 d, 24 h, and 6 h at 25° C. at a shaking rate of 500 rpm. If necessary, the solid phase was separated by filter centrifugation (0.5-μm PVDF membrane). The filtrates were diluted in the diluent (0.1% formic acid in MeCN) to concentrations≦0.2 mg/mL (unknown and likely lower for suspensions) and examined using the HPLC method given in Table 29. As reference, the PP415-P1 material was diluted in the diluent to a concentration of 0.25 mg/mL and added to the beginning and end of the HPLC sequence.

[3] = Approximate solubility by manual dilution; conditions: r.t.
Description: The approximate solubility of the PP415-P1 starting material was measured in twelve solvents and four solvent mixtures at r.t. by manual dilution combined with visual observation (Table 10). Due to the experimental error inherent in this method, the solubility values are intended to be regarded as rough estimates and are to be used solely for the design of crystallization experiments. All solvent mixtures are listed as ratios by volume (v/v).
Approximate Solubility Determination: Approximate solubilities were determined by a stepwise dilution of a suspension of about 10 mg of substance in 0.05 mL of solvent. […] Due to the experimental error inherent in this method, the solubility values are intended to be regarded as rough estimates and are to be used solely for the design of crystallization experiments.

[4] = Storage stability of the amorphous form (PXRD)
Description: To learn more about its fundamental properties and physical stability, the amorphous form of 63415 was stressed by storage at elevated temperatures and relative humidities.
Samples of the amorphous form (the PP415-P1 starting material) were stored open at 25° C./˜62% r.h. (over saturated aqueous solution of NH4NO3) and 40° C./˜75% r.h. (over saturated aqueous solution of NaCl) and closed at 60° C. and 80° C. (Table 12). At time points 0 w, 1 w, 2 w, and 4 w the samples were examined by PXRD and compared to the starting material, PP415-P1.

[5] = Polymorph screen: crystallization and drying experiments (FT-Raman, PXRD, TG-FTIR, DSC)
Description: A preformulation and polymorphism study was performed for compound 63415. […] A total of 30 crystallization experiments, including phase equilibrations, drying experiments and other techniques, were carried out. All obtained solids were characterized by FT-Raman spectroscopy. All new forms were characterized by PXRD and TG-FTIR, and optionally by DSC and DVS.
All obtained materials were characterized by FT-Raman spectroscopy; selected samples were also characterized by PXRD.
Suspension equilibration experiments were carried out in one solvent and eleven solvent mixtures (Table 13). Suspensions of ˜100 mg of PP415-P1 in 0.2-2.0 mL of the selected solvents were prepared and shaken for 4-15 days at 22-24° C. The solids were recovered and characterized by FT-Raman spectroscopy; most were characterized also by PXRD.
Hot solutions of PP415-P1 were prepared in one solvent and four solvent mixtures (Table 14). […] In two cases (-P22, -P23) no solid precipitated, even after storage at 4-5° C. for two days. Here, the solvent was evaporated under N2 flow at r.t. The solids were recovered and characterized by FT-Raman spectroscopy and for those with spectra different from the amorphous starting material, FT-Raman class 1, also by PXRD.
Clear solutions of PP415-P1 were prepared in three solvent mixtures (Table 15). The solvents were then slowly evaporated at r.t. under ambient conditions. However, in two of the three experiments (-P15 and -P17) white solid precipitated before evaporation began. The obtained solids were examined by FT-Raman spectroscopy and PXRD.
At least one sample of each class was dried under vacuum with the aim to desolvate the solvates and to obtain non-solvated crystalline forms of 63415 (Table 16). The dried materials were characterized further by FT-Raman, PXRD, and TG-FTIR.
Bruker RFS100 with OPUS 6.5 software; Nd:YAG 1064-nm excitation, Ge detector, 3500-100 cm^−1 range; typical measurement conditions: 100-300 mW nominal laser power, 64-128 scans, 2 cm^−1 resolution.
Stoe Stadi P; Mythen1K Detector; Cu—Kα radiation; standard measurement conditions: transmission; 40 kV and 40 mA tube power; curved Ge monochromator; 0.02°2θ step size, 12 s or 60 s step time, 1.5-50.5°2θ or 1.0-55°2θ scanning range; detector mode: step scan; 1°2θ or 6°2θ detector step; standard sample preparation: 10 to 20 mg sample was placed between two acetate foils; sample holder: Stoe transmission sample holder; the sample was rotated during the measurement.
Netzsch Thermo-Microbalance TG 209 with Bruker FT-IR Spectrometer Vector 22; aluminum crucible (with microhole), N2 atmosphere, 10 K/min heating rate, 25-250° C. or 25-350° C. range.
Perkin Elmer DSC 7; gold crucibles (closed or with microhole), sample filled in an N2 environment, 10 K/min heating rate, −50 to 250° C. or 350° C. range, at times quench cooling (at −200 K/min) to −50° C. between scans.

Compound: CC1(C)CC[C@]2(NC(=O)C(C)(F)F)CC[C@]3(C)[C@H](C(=O)C=C4[C@@]5(C)C=C(C#N)C(=O)C(C)(C)[C@@H]5CC[C@]43C)[C@@H]2C1 [PP415-P1]
- DVS: hygroscopicity class [1]: DVS: slightly hygroscopic; Δm = (mass increase <2% but ≧0.2%)
- DVS: total mass gain from 0% r.h. to 95% r.h. ([1]; 0% r.h. to 95% r.h.): mass gain of 2.1 wt.-% from 0%
- DVS: Δm (50%→85% r.h.) ([1]; 50%→85% r.h.): +0.4% (50%→85% r.h.); total
- Δm (50%→85% r.h.) ([1]; DVS): +0.4%
- post-DVS Raman and/or PXRD: solid form ([1]; after DVS): unchanged
- Hygroscopicity classification (DVS) ([1]; mass gain at 85% r.h.): slightly hygroscopic (mass increase <2% but ≧0.2%)
- area-% of reference sample at end of HPLC sequence, 242 nm [2]: 99.5%
- area-% of reference sample at end of HPLC sequence, 254 nm [2]: 99.3%
- Solubility S ([3]; DCM): S > 200 mg/mL
- Solubility S ([3]; DEE, dissolved completely overnight): S > 1^d mg/mL
- Solubility S ([3]; DMF): S > 210 mg/mL
- Solubility S ([3]; EtOAc): S > 210 mg/mL
- Solubility S ([3]; H2O): S < 1 mg/mL
- Solubility S ([3]; MeCN): S > 230 mg/mL
- Solubility S ([3]; MeCN/H2O (2:3)): S < 1 mg/mL
- Solubility S ([3]; MeOH): S < 210 mg/mL
- Solubility S ([3]; acetone): S > 230 mg/mL
- Solubility S ([3]; heptane): S < 1 mg/mL
- Solubility S ([3]; toluene): S > 200 mg/mL
- Solubility S ([3]; toluene/DEE (1:1), precipitation after ~1d): S > 220 mg/mL
- PXRD Result after storage ([4]; closed, 60° C., 1 w): amorphous
- PXRD Result after storage ([4]; closed, 60° C., 2 w): amorphous
- PXRD Result after storage ([4]; closed, 60° C., 4 w): amorphous
- PXRD Result after storage ([4]; closed, 80° C., 1 w): amorphous
- PXRD Result after storage ([4]; closed, 80° C., 2 w): amorphous
- PXRD Result after storage ([4]; closed, 80° C., 4 w): amorphous
- PXRD Result after storage ([4]; open, 25° C./~62% r.h., 1 w): amorphous
- PXRD Result after storage ([4]; open, 25° C./~62% r.h., 2 w): amorphous
- PXRD Result after storage ([4]; open, 25° C./~62% r.h., 4 w): amorphous
- PXRD Result after storage ([4]; open, 40° C./~75% r.h., 1 w): amorphous
- PXRD Result after storage ([4]; open, 40° C./~75% r.h., 2 w): amorphous
- PXRD Result after storage ([4]; open, 40° C./~75% r.h., 4 w): amorphous
- TG-FTIR: decomposition at T [5]: decomposition at T > 290 °C
- DSC: Tg, 1st scan ([5]; 1st scan): DSC: 1st scan: Tg = 152.7 °C
- DSC: Tg, 2nd scan ([5]; 2nd scan): Tg = 149.7 °C (ΔCp = 0.45 J/g ° C.)
- TG-FTIR: mass loss (solvent) ([5]; first or main loss, solvent and temperature range per sample as printed): TG-FTIR: loss of ~0.9 wt.-%
